Type in all cases: cell-based
Assay [1] concerns the target T1, OAT4 (Homo sapiens, UniProt Q9NSA0).
T1 construct: cRNA (an RNA complementary to cDNA) was prepared from a plasmid containing this cDNA; expressed in transfected cells; host or cells: Xenopus laevis oocytes injected with OAT4 cRNA (transcribed in vitro with T7 RNA polymerase from plasmid pZL holding the hOAT4 cDNA)
T1 sequence (Q9NSA0 1-550): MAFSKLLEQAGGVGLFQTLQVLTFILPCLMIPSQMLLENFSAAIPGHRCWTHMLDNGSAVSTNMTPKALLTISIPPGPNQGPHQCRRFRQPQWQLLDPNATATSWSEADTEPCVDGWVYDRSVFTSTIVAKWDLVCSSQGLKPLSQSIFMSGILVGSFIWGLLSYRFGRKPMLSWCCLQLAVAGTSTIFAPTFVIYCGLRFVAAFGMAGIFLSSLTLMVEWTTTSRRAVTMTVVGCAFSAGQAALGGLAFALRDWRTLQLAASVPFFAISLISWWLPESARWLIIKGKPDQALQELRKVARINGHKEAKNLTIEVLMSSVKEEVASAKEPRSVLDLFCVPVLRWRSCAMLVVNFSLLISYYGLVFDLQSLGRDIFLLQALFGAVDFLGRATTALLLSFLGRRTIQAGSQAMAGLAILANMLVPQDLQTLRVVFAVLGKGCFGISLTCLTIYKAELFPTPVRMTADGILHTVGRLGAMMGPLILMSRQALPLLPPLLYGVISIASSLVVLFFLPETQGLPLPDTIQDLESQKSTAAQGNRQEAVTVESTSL
The assay is described as follows: Inhibition experiment: ^3H-estrone sulfate uptake in OAT4 cRNA-injected oocytes with various compounds. The following applies: 50 nM ^3H-estrone sulfate; 500 μM unlabeled compound; FIG. 4. As to the method:
Further, in order to investigate the substrate selectivity of OAT4 of the present invention, various ionic substances were added to an incorporation experimental system of ^3H-estrone sulfate and the influence thereby was tested (Inhibition Experiment).
In order to further investigate the substrate selectivity of OAT4, various anionic substances were added to a system in an uptake experiment system of ^3H-estrone sulfate in oocytes into which OAT4 cRNA was injected and the influence was investigated (inhibition experiment). An uptake experiment of ^3H-estrone sulfate was carried out according to the above-mentioned method using oocytes into which OAT4 cRNA was injected. Uptake of 50 nM ^3H-estrone sulfate was measured in the presence and absence of 500 μM of various compounds (unlabeled).

Assay [2] concerns the target T1, OAT4. As to the method: In order to confirm that the resulting OTA4 has an organic anion transport activity, cRNA (an RNA complementary to cDNA) was prepared from a plasmid containing this cDNA according to a method of Sekine, et al. (Sekine, T., et al., J. Biol. Chem., volume 272, pages 18526-18529, 1997) and injected into oocytes of Xenopus laevis and the oocytes were subjected to an incorporation experiment for various organic anions and organic cations which were labeled with radioisotopes.
From an OAT4 cDNA-containing plasmid was prepared cRNA (an RNA complementary to cDNA) in vitro using a T7 RNA polymerase (Sekine, T., et al., J. Biol. Chem., volume 272, pages 18526-18529, 1997).
The resulting cRNA was injected into oocytes of Xenopus laevis according to the already-reported method (Sekine, T., et al., J. Biol. Chem., volume 272, pages 18526-18529, 1997) and the oocytes were subjected to an incorporation experiment using various labeled organic anions and organic cations.

Assay [3] has as its target T1, OAT4. The assay is described as follows: Michaelis-Menten kinetic test of organic anion transport by OAT4 in oocytes injected with OAT4 cRNA. The note with it: FIG. 2. As to the method:
After that, the above-mentioned oocytes into which OAT4 cRNA was injected was used for checking the changes in the amount of estrone sulfate, dehydroepiandrosterone sulfate and ochratoxin A incorporated by OAT4 of the present invention at various concentrations whereby a Michaelis-Menten dynamic test for an organic anion transport was carried out.
A Michaelis-Menten dynamic test was carried out for an organic anion transport of OAT4. Changes in the uptake amount of various concentrations of estrone sulfate and dehydroepiandrosterone sulfate by OAT4 were tested whereby concentration dependency of those substrates by OAT4 was investigated. The uptake experiment of labeled estrone sulfate and dehydroepiandrosterone sulfate was carried out according to the above-mentioned method using oocytes into which OAT4 cRNA was injected.

The target of assay [4] is T1, OAT4. Description: Cation (sodium) dependency of estrone sulfate transport via OAT4 in oocytes. The note with it: extracellular sodium substituted with lithium and choline; FIG. 3. As to the method:
Dependency of the OAT4 of the present invention on sodium in an organic anion transport was investigated. Incorporation of estrone sulfate by OAT4 was tested in the presence of various extracellular cations.
Sodium-dependency of OAT4 in an organic anion transport was investigated. Even when extracellular sodium was substituted with lithium and choline, there was no change in the transport of estrone sulfate via OAT4 and it was clarified that OAT4 is an organic anion transporter which is independent on extracellular sodium (refer to FIG. 3).

Assay [5] deals with T1, OAT4. Description: Inhibitory test of OAT4 by sulfate conjugates and glucuronic acid conjugates. The following applies: FIG. 5.

Entries after “also recorded” stand apart in the source; their conditions may differ. Where a name gives a salt, the structure may show the parent alone. Read-outs that look alike come from different tables or passages of the source.

By Km is commonly meant the substrate concentration at which the rate is half of its maximum.

Regarding `COc1ccc2c(c1)c(CC(=O)O)c(C)n2C(=O)c1ccc(Cl)cc1` [indomethacin], the “inhibition of transport of ^3H-estrone sulfate by OAT4” value (shortened to “inhibition”) at OAT4 [1] is recorded as “significantly inhibited”.
Same read-out and setting: next, `C[C@H](CCC(=O)NCCS(=O)(=O)O)[C@H]1CC[C@H]2[C@@H]3[C@H](O)C[C@@H]4C[C@H](O)CC[C@]4(C)[C@H]3C[C@H](O)[C@]12C` [taurocholic acid]: “significantly inhibited”.
On to `CC[N+](CC)(CC)CC` [tetraethylammonium], for which, at OAT4 [2], the “incorporation (uptake) by oocytes expressing OAT4” value (from here on “incorporation (uptake)”) is “no incorporation was noted”. The “inhibition” value at OAT4 [1] is reported as “did not show an inhibiting action; also recorded: did not show any inhibiting action”.
With `CC(C)Cc1ccc(C(C)C(=O)O)cc1` (stereo not drawn) [ibuprofen], at OAT4 [1], the “inhibition” value is “significantly inhibited”.
With `CCCCNc1cc(C(=O)O)cc(S(N)(=O)=O)c1Oc1ccccc1` [bumetanide], at OAT4 [1], the “inhibition” value is “significantly inhibited”.
Still for that read-out and setting: the entry for `C[C@H](CCC(=O)O)[C@H]1CC[C@H]2[C@@H]3[C@H](O)C[C@@H]4C[C@H](O)CC[C@]4(C)[C@H]3C[C@H](O)[C@]12C` [cholic acid] is “significantly inhibited”; for `CC1(C)S[C@@H]2[C@H](NC(=O)Cc3ccccc3)C(=O)N2[C@H]1C(=O)O` [penicillin G] it is “significantly inhibited”.
On the same count and under the same terms, the entry for `CCCN(CCC)S(=O)(=O)c1ccc(C(=O)O)cc1` [probenecid] is “significantly inhibited”.
Consider estrone sulfate, for which the “incorporation (uptake)” value at OAT4 [2] (Xenopus laevis oocytes injected with OAT4 cRNA, radiolabeled substrate, FIG. 1, listed as 3H-estrone sulfate) is “incorporated; also recorded: showed incorporation”. Moreover, the Km on OAT4 [3] was determined as 1.01 ± 0.15 µM. Also, at OAT4 [4], the “change in transport of estrone sulfate via OAT4 on cation substitution” value is “no change”.
On to `Nc1cc(N2CCCCC2)nc(N)[n+]1OS(=O)(=O)[O-]` [minoxidil sulfate], for which, on OAT4 [5], the “interaction with OAT4 (inhibitory test)” value is recorded as “all sulfate conjugates except minoxidil sulfate showed an interaction”.
Regarding `C[C@@H]1Cc2c(Cl)cc(C(=O)N[C@@H](Cc3ccccc3)C(=O)O)c(O)c2C(=O)O1` [ochratoxin A], the “incorporation (uptake)” value at OAT4 [2] (Xenopus laevis oocytes injected with OAT4 cRNA, radiolabeled substrate, FIG. 1, listed as 3H-ochratoxin A) was “incorporated; also recorded: showed incorporation”.
Take dehydroepiandrosterone sulfate: the “incorporation (uptake)” value at OAT4 [2] (Xenopus laevis oocytes injected with OAT4 cRNA, radiolabeled substrate, FIG. 1, listed as 3H-dehydroepiandrosterone sulfate) is given as “incorporated; also recorded: showed incorporation”.
On to `O=C(O)[C@H]1O[C@@H](Oc2cccc3ccccc23)[C@H](O)[C@@H](O)[C@@H]1O` [α-naphthyl-β-glucuronide], for which the “interaction with OAT4 (inhibitory test)” value on OAT4 [5] is “only a weak interaction with OAT4 except α-naphthyl-β-glucuronide”.
`O=C(O)Cc1ccccc1Nc1c(Cl)cccc1Cl` [diclofenac]: on OAT4 [1], the “inhibition” value is listed as “significantly inhibited”.
Still for that read-out and setting: the entry for `O=C1OC(c2ccc(O)c(S(=O)(=O)O)c2)(c2ccc(O)c(S(=O)(=O)O)c2)c2c(Br)c(Br)c(Br)c(Br)c21` [bromosulfophthalein] is “significantly inhibited”.

The values are drawn from US7393939B2, “Placental organic anion transporter and gene thereof” (Japan Science and Technology Corporation, priority 1999, dated 2008).
